pIC50, pKi: −log10 of the molar value.
assay: Non-competitive inhibition of Saccharomyces cerevisiae alpha-glucosidase using para-nitrophenyl-alpha-D-glucopyranoside as substrate preincubated for 15 mins followed by substrate addition measured after 30 mins by Lineweaver-Burk plot analysis

| Structure (SMILES) | pKi |
| --- | --- |
| OC(CSc1nnc(-c2ccco2)c(-c2ccco2)n1)Cn1c2ccc(Br)cc2c2cc(Br)ccc21 (stereo not drawn) | 5.35 |

assay: Inhibition of Saccharomyces cerevisiae alpha-glucosidase using para-nitrophenyl-alpha-D-glucopyranoside as substrate preincubated for 15 mins followed by substrate addition measured after 30 mins by spectrophotometric method

| Structure (SMILES) | pIC50 |
| --- | --- |
| OC(CSc1nnc(-c2ccco2)c(-c2ccco2)n1)Cn1c2ccccc2c2ccccc21 (stereo not drawn) | 4.75 |
| OC(CSc1nnc(-c2cccc(Br)c2)c(-c2cccc(Br)c2)n1)Cn1c2ccccc2c2ccccc21 (stereo not drawn) | 4.70 |
| OC(CSc1nnc(-c2ccc(F)cc2)c(-c2ccc(F)cc2)n1)Cn1c2ccccc2c2ccccc21 (stereo not drawn) | 4.76 |
| OC(CSc1nnc(-c2ccccc2F)c(-c2ccccc2F)n1)Cn1c2ccccc2c2ccccc21 (stereo not drawn) | 4.67 |
| O=[N+]([O-])c1ccc2c(c1)c1ccccc1n2CC(O)CSc1nnc(-c2ccccc2F)c(-c2ccccc2F)n1 (stereo not drawn) | 4.65 |
| OC(CSc1nnc(-c2ccccc2)c(-c2ccccc2)n1)Cn1c2ccc(Cl)cc2c2cc(Cl)ccc21 (stereo not drawn) | 4.56 |
| OC(CSc1nnc(-c2cccc(Br)c2)c(-c2cccc(Br)c2)n1)Cn1c2ccc(Cl)cc2c2cc(Cl)ccc21 (stereo not drawn) | 4.72 |
| OC(CSc1nnc(-c2ccccc2Cl)c(-c2ccccc2Cl)n1)Cn1c2ccccc2c2ccccc21 (stereo not drawn) | 4.32 |
| OC(CSc1nnc(-c2ccccc2)c(-c2ccccc2)n1)Cn1c2ccccc2c2ccccc21 (stereo not drawn) | 4.50 |
| OC(CSc1nnc(-c2cccc(F)c2)c(-c2cccc(F)c2)n1)Cn1c2ccc(Cl)cc2c2cc(Cl)ccc21 (stereo not drawn) | 4.48 |
| OC(CSc1nnc(-c2cccc(Br)c2)c(-c2cccc(Br)c2)n1)Cn1c2ccc(Br)cc2c2cc(Br)ccc21 (stereo not drawn) | 5.02 |
| OC(CSc1nnc(-c2ccccc2)c(-c2ccccc2)n1)Cn1c2ccc(Br)cc2c2cc(Br)ccc21 (stereo not drawn) | 4.71 |
| OC(CSc1nnc(-c2ccco2)c(-c2ccco2)n1)Cn1c2ccc(Br)cc2c2cc(Br)ccc21 (stereo not drawn) | 5.37 |
| OC(CSc1nnc(-c2ccco2)c(-c2ccco2)n1)Cn1c2ccc(Cl)cc2c2cc(Cl)ccc21 (stereo not drawn) | 5.03 |
| O=[N+]([O-])c1ccc2c(c1)c1ccccc1n2CC(O)CSc1nnc(-c2ccccc2)c(-c2ccccc2)n1 (stereo not drawn) | 4.60 |
| OC(CSc1nnc(-c2ccccc2F)c(-c2ccccc2F)n1)Cn1c2ccc(Br)cc2c2cc(Br)ccc21 (stereo not drawn) | 4.89 |
| C[C@@H]1O[C@@H](O[C@@H]2[C@@H](O)[C@H](O)[C@H](O[C@H]3[C@H](O)[C@@H](O)C(O)O[C@@H]3CO)O[C@H]2CO)[C@@H](O)[C@H](O)[C@H]1N[C@H]1C=C(CO)[C@@H](O)[C@H](O)[C@H]1O (stereo partly drawn) | 3.00 |

— ChEMBL document CHEMBL3797165, “Synthesis and biological evaluation of novel 1,2,4-triazine derivatives bearing carbazole moiety as potent α-glucosidase inhibitors” (Bioorg Med Chem Lett, 2016)
